Paper PMC6112376, “Comprehensive Analyses and Prioritization of Tox21 10K Chemicals Affecting Mitochondrial Function by in-Depth Mechanistic Studies” (Environmental Health Perspectives, 2018)
Read-outs that look alike come from different tables or passages of the source.

Legend:
[1] = test system: HeLa cells expressing YFP-Parkin; test: Parkin translocation assay; format: cell-based, human
[2] = test system: Nrf2/ARE (ARE-bla HepG2 cells); test: ARE β-lactamase reporter gene assay; format: cell-based, human; conditions: Homo sapiens, HepG2; 16 h incubation; mean±SD of three experiments; read-out: ARE (HepG2) EC50
HepG2 cells [3] = test: cells; conditions: Homo sapiens
[4] = test system: Caenorhabditis elegans strain PE255; conditions: PE255 [sur-5::luc+::gfp; rol-6(su1006)], Caenorhabditis elegans, in vivo
rat primary hepatocytes [5] = test system: rat primary hepatocytes
[6] = test system: Caenorhabditis elegans (Bristol N2); test: C. elegans larval development and growth assay
HepG2 cells [7] = conditions: cited from earlier work
[8] = test system: p53 (p53-bla HCT-116 cells); test: p53 β-lactamase reporter gene assay; format: cell-based, human; conditions: Homo sapiens; 16 h incubation; mean±SD of three experiments
HepG2 cells [9] = test: ROS-Glo hydrogen peroxide (ROS) assay; format: cell-based, human
[10] = test system: isolated rat liver mitochondria; test: Oxygen consumption, Clark-type oxygen electrode; format: biochemical
rat primary hepatocytes [11] = test: MMP assay in rat primary hepatocytes; conditions: Rattus norvegicus, Hepatocyte
[12] = test system: Caenorhabditis elegans strain PE255; test: In vivo C. elegans ATP status assay
hNSC = test: MMP assay in human neural stem cells (hNSC); format: cell-based; conditions: Homo sapiens, Neural stem cell, 1 h, read-out: hNSC IC50 (MMP)
HepG2 cells [13] = test: Intracellular ATP content (cell viability) assay; format: cell-based, human; conditions: Homo sapiens, HepG2, 40 h

Nc1ccc(N)c2c1C(=O)c1ccccc1C2=O [1,4-Diaminoanthraquinone]
Parkin recruitment [1]: Inactive
EC50 [2]: 22900 ± 27400 nM
IC50 (HepG2 cells [3]; HepG2, 1 h, read-out: HepG2 IC50 Galactose (MMP)): 1.13 µM
IC50 (HepG2 cells [3]; HepG2, 1 h, read-out: HepG2 IC50 Glucose (MMP)): 0.77 µM
IC50 (HepG2 cells [3]; HepG2, read-out: MMP assays IC50 (µM) HepG2): 0.22 µM
Emax (HepG2 cells [3]; HepG2, read-out: MMP assays efficacy (%) HepG2): 81%
LEC (lowest effect concentration), ATP assay [4]: ≤ 10 µM
MMP assays efficacy (%) Rat Hepatocytes (rat primary hepatocytes [5]): -93±8%
Rat hepatocytes (efficacy) (MMP) (rat primary hepatocytes [5]): 3.79±1.62 ( −118±24.7 ) %
EXT: mean difference in nematode size relative to plate controls ([6]; 0.5 µM): 0.03102
EXT: mean difference in nematode size relative to plate controls ([6]; 1 µM): 0.01427
EXT: mean difference in nematode size relative to plate controls ([6]; 5 µM): 0.05881
EXT: mean difference in nematode size relative to plate controls ([6]; 10 µM): -0.04953
EXT: mean difference in nematode size relative to plate controls ([6]; 25 µM): 0.1095
EXT: mean difference in nematode size relative to plate controls ([6]; 50 µM): 0.2596
EXT: mean difference in nematode size relative to plate controls ([6]; 75 µM): 0.3422
EXT: mean difference in nematode size relative to plate controls ([6]; 100 µM): 0.4149
minimal effective concentration ([6]; Caenorhabditis elegans, read-out: LEC EXT: lowest effect concentration for extinction, a measure of nematode size): 25 µM
MMP assays efficacy (%) qHTS-HepG2 (HepG2 cells [7]): -82±13%
IC50 (HepG2 cells [7]; read-out: MMP assays IC50 (µM) qHTS-HepG2): 0.03 ± 0.01 µM
EC50 [8]: 35700 ± 2410 nM
ROS (HepG2) EC50 (HepG2 cells [9]): Inactive
Potential Mechanism [10]: Inactive
I-ADP, % of control (O2 consumption rate) ([10]; 20 µM): 89 (44.1) % of control
I-sub, % of control (O2 consumption rate) ([10]; 20 µM): 103 (14.2) % of control
II-ADP, % of control (O2 consumption rate) ([10]; 20 µM): 90 (80.2) % of control
II-sub, % of control (O2 consumption rate) ([10]; 20 µM): 100 (27.1) % of control
I-ADP, % of control (O2 consumption rate) ([10]; 100 µM): 82 (23.4) % of control
I-sub, % of control (O2 consumption rate) ([10]; 100 µM): 95 (11.4) % of control
II-ADP, % of control (O2 consumption rate) ([10]; 100 µM): 97 (35.2) % of control
II-sub, % of control (O2 consumption rate) ([10]; 100 µM): 95 (14.1) % of control
IC50 (rat primary hepatocytes [11]; 1 h, read-out: Rat hepatocytes IC50 (MMP)): 3.79 µM
IC50 (rat primary hepatocytes [11]; read-out: MMP assays IC50 (µM) Rat Hepatocytes): 1.24 ± 0.76 µM
LUM: mean difference in luminescence (ATP content) relative to plate controls ([12]; 0.5 µM): 0.03036
LUM: mean difference in luminescence (ATP content) relative to plate controls ([12]; 1 µM): 0.08336
LUM: mean difference in luminescence (ATP content) relative to plate controls ([12]; 5 µM): 0.4462
LUM: mean difference in luminescence (ATP content) relative to plate controls ([12]; 10 µM): 0.9963
LUM: mean difference in luminescence (ATP content) relative to plate controls ([12]; 25 µM): 1.526
LUM: mean difference in luminescence (ATP content) relative to plate controls ([12]; 50 µM): 1.59
LUM: mean difference in luminescence (ATP content) relative to plate controls ([12]; 75 µM): 2.063
LUM: mean difference in luminescence (ATP content) relative to plate controls ([12]; 100 µM): 2.457
minimal effective concentration ([12]; Caenorhabditis elegans, read-out: LEC LUM: lowest effect concentration for luminescence, a measure of nematode ATP content): 5 µM
IC50 (hNSC): 150 nM
IC50 (HepG2 cells [13]; read-out: ATP (HepG2, galactose) IC50): 22300 nM
IC50 (HepG2 cells [13]; read-out: ATP (HepG2, glucose) IC50): 24700 nM
